{"source": "patent US10342777B2", "about": "“Caffeoylquinic acid-rich extract and preparation as well as use thereof” (Macau University of Science and Technology, priority 2015, dated 2019)", "key": {"JNK": {"test_system": "JNK", "experiment": "Western blot of phospho-JNK in left ventricular tissue after I/R", "type": "in vivo, rat", "conditions": "5 mg/kg before reperfusion"}, "IL-6": {"test_system": "IL-6", "experiment": "Cardiac tissue IL-6 level by ELISA 24 h after I/R", "type": "in vivo, rat", "conditions": "5 mg/kg", "description": "(§1) An ischemia reperfusion injury was produced in rat heart based on Buerke's description with our modifications (Buerke et al., Proc Natl Acad Sci USA, 1995, 92:8031-8035). Sixty rats were randomly divided into six groups (n=10 per group): (I) Sham group (given saline vehicle without I/R); (II) I/R group with saline alone; (Ill) I/R group with 10 mg/kg of the caffeoylquinic acid-rich extract of example 1; (IV) I/R group with 20 mg/kg of the caffeoylquinic acid-rich extract of example 1; (V) I/R group with 40 mg/kg of the caffeoylquinic acid-rich extract of example 1; […] The vehicle or drugs were administered 1 min before reperfusion via single bolus tail vein injection. […] Using a PowerLab (ADInstruments Pty Ltd., Castle Hill, Australia), mean aortic pressure (MAP) was recorded from the Millar catheter. Electrocardiogram (ECG) in lead II was also recorded through the needle electrodes attached to the limbs. The heart rate and ST-segment elevation were calculated off-line. […] Levels of TNF-α and IL-6 were measured using ELISA kits for TNF-α (RayBiotech, Inc., Norcross Ga.) and IL-6 (R & D System). […] The contents of total protein in the supernatants were determined by using a Bio-Rad kit (Bio-Rad Laboratories, Hercules, Calif., USA). […] To determine the effect of a caffeoylquinic acid-rich extract on pro-inflammatory cytokines, cardiac tissue levels of TNF-α and IL-6 after I/R were evaluated."}, "TNF-α": {"test_system": "TNF-α", "experiment": "Cardiac tissue TNF-α level by ELISA 24 h after I/R", "type": "in vivo, rat", "conditions": "5 mg/kg", "description": "as §1"}, "[1]": {"test_system": "Creatine kinase-MB (CK-MB)", "experiment": "Serum CK-MB activity 24 h after I/R (commercial kit)", "type": "in vivo, rat", "conditions": "5 mg/kg, P<0.01", "description": "(§2) An ischemia reperfusion injury was produced in rat heart based on Buerke's description with our modifications (Buerke et al., Proc Natl Acad Sci USA, 1995, 92:8031-8035). Sixty rats were randomly divided into six groups (n=10 per group): (I) Sham group (given saline vehicle without I/R); (II) I/R group with saline alone; (Ill) I/R group with 10 mg/kg of the caffeoylquinic acid-rich extract of example 1; (IV) I/R group with 20 mg/kg of the caffeoylquinic acid-rich extract of example 1; (V) I/R group with 40 mg/kg of the caffeoylquinic acid-rich extract of example 1; […] The vehicle or drugs were administered 1 min before reperfusion via single bolus tail vein injection. Rats were anesthetized with pentobarbital sodium (70 mg/kg body weight) by an i.p. injection of a mixture of 20% Dorminal (1 ml contains 200 mg pentobarbital sodium, Alfasan) and sterile saline at a ratio of 1:3 (VN). Using a PowerLab (ADInstruments Pty Ltd., Castle Hill, Australia), mean aortic pressure (MAP) was recorded from the Millar catheter. Electrocardiogram (ECG) in lead II was also recorded through the needle electrodes attached to the limbs. The heart rate and ST-segment elevation were calculated off-line. The chest was opened at the left fourth intercostal space. […] Activities of LDH and CK-MB were determined by using commercial assay kits according to manufacturer's instructions. […]"}, "[2]": {"test_system": "myocardial I/R injury in rat heart", "experiment": "Myocardial infarct size by TTC staining after ischemia/reperfusion", "type": "in vivo", "conditions": "5 mg/kg i.v. tail vein 1 min before reperfusion; positive control; vehicle 15.2±1.4%", "description": "(§3) An ischemia reperfusion injury was produced in rat heart based on Buerke's description with our modifications (Buerke et al., Proc Natl Acad Sci USA, 1995, 92:8031-8035). Sixty rats were randomly divided into six groups (n=10 per group): (I) Sham group (given saline vehicle without I/R); (II) I/R group with saline alone; (Ill) I/R group with 10 mg/kg of the caffeoylquinic acid-rich extract of example 1; (IV) I/R group with 20 mg/kg of the caffeoylquinic acid-rich extract of example 1; (V) I/R group with 40 mg/kg of the caffeoylquinic acid-rich extract of example 1; […] The vehicle or drugs were administered 1 min before reperfusion via single bolus tail vein injection. […] Using a PowerLab (ADInstruments Pty Ltd., Castle Hill, Australia), mean aortic pressure (MAP) was recorded from the Millar catheter. Electrocardiogram (ECG) in lead II was also recorded through the needle electrodes attached to the limbs. The heart rate and ST-segment elevation were calculated off-line. […] The images of the slice were captured by a LEICA digital camera 480 and infarct area in each slice was measured by computed planimetry with an image analyzing program Image J1.26 (Wayne Rasband, National Institutes of Health, USA). Then the infarct area of each slice was determined by manual delineation of TTC-negative pale area of the image. […]"}, "[3]": {"test_system": "Lactate dehydrogenase (LDH)", "experiment": "Serum LDH activity 24 h after I/R (commercial kit)", "type": "in vivo, rat", "conditions": "5 mg/kg, P<0.01", "description": "as §2"}, "[4]": {"test_system": "myocardial I/R injury in rat heart", "experiment": "ECG (lead II) ST-segment depression and heart rate 24 h after I/R", "type": "in vivo", "conditions": "5 mg/kg; 24 h reperfusion", "description": "as §3, with “Electrocardiogram (ECG) in lead II was recorded through” for “The images of”, “needle electrodes attached to the limbs continuously for 15 min” for “slice were captured by a LEICA digital camera 480 and infarct area in each slice was measured by computed planimetry”, “electrocardiograph (ASB240U, […], China). The heart rate and ST-segment depression were calculated off-line. […] The amplitude” for “image analyzing program Image J1.26 (Wayne Rasband, National Institutes”, “ST-segment and heart rate were recorded and used as” for “Health, USA). Then”, “index” for “infarct area”, “ischemic electrocardiograph changes.” for “each slice was determined by manual delineation of TTC-negative pale area of the image.”"}}, "data": [{"smiles": "O=C(/C=C/c1ccc(O)c(O)c1)OCCc1ccccc1", "note": "[CAPE, 2-phenylethyl (2E)-3-(3,4-dihydroxyphenyl)acrylate]", "values": [{"measurement": "JNK phosphorylation", "setting": "JNK", "result": "markedly reduced"}, {"measurement": "cardiac tissue level of IL-6", "setting": "IL-6", "result": "markedly decreased"}, {"measurement": "cardiac tissue level of TNF-α", "setting": "TNF-α", "result": "markedly decreased"}, {"measurement": "serum CK-MB", "setting": "[1]", "result": "913±40.2", "unit": "U/L"}, {"measurement": "myocardial infarct size", "setting": "[2]", "result": "7.9±0.9", "unit": "%"}, {"measurement": "serum LDH", "setting": "[3]", "result": "287±18.8", "unit": "U/L"}, {"measurement": "I/R-induced ST-segment depression", "setting": "[4]", "result": "significant protective effects"}, {"measurement": "heart rate decrease after I/R", "setting": "[4]", "result": "slight effect without significant difference"}]}]}
